Reference: ChEMBL document CHEMBL4118067, “Isosteroidal alkaloids as potent dual-binding site inhibitors of both acetylcholinesterase and butyrylcholinesterase from the bulbs of Fritillaria walujewii” (Eur J Med Chem, 2017)
The source made the active and inactive calls. The rule behind the calls is not given here.

Legend:
Acetylcholinesterase = Acetylcholinesterase (Electrophorus electricus, UniProt O42275); test: Inhibition of electric eel AChE using acetylthiocholine iodide as substrate preincubated for 15 mins followed by substrate addition measured for 30 mins by Ellman's method
Chain of Acetylcholinesterase (O42275 whole entry): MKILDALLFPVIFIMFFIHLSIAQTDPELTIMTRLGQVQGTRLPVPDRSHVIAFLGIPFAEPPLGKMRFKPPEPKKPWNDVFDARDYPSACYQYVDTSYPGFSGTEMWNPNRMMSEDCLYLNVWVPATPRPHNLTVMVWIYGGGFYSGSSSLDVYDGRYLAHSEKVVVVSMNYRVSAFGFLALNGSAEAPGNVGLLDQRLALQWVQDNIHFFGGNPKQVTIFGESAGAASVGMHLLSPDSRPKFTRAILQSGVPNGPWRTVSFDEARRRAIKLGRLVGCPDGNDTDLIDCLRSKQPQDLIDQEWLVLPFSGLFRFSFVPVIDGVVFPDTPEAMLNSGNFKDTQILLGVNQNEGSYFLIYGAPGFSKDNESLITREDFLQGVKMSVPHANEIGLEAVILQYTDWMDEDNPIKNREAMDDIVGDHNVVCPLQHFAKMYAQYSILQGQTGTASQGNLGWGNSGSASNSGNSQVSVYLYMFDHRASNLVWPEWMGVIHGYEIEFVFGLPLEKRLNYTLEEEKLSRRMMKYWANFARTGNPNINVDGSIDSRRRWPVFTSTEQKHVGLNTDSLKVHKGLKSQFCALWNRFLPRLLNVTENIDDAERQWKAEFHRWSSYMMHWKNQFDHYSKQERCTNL

[1] = molecular target: Acetylcholinesterase (Electrophorus electricus) (UniProt O42275); test: Reversible inhibition of electric eel AChE at 2 to 10 uM using acetylthiocholine iodide as substrate preincubated for 15 mins followed by substrate addition measured for 30 mins by Ellman's method
Chain of Acetylcholinesterase (Electrophorus electricus) (O42275 24-633 limits assumed): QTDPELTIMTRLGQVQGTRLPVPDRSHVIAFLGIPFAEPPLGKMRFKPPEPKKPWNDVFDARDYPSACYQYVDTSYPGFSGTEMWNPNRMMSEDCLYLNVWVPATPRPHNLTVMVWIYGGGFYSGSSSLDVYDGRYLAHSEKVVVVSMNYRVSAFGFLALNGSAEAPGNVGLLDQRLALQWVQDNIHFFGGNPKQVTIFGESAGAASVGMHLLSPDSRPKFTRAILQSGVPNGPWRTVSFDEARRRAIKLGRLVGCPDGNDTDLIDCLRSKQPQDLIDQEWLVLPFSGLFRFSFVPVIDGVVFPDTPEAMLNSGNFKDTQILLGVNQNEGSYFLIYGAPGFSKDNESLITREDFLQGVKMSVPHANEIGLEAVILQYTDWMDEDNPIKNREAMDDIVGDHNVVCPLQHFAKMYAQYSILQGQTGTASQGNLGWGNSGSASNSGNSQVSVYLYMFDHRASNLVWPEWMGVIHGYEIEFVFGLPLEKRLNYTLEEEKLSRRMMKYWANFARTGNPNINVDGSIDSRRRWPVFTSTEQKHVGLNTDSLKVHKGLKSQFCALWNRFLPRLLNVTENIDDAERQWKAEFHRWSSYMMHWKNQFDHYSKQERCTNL

[2] = molecular target: Acetylcholinesterase (Electrophorus electricus) (UniProt O42275); test: Mixed-type inhibition of electric eel AChE at 2 to 10 uM using acetylthiocholine iodide as substrate preincubated for 15 mins followed by substrate addition measured for 30 mins by Lineweaver-Burk plot method
[3] = Selectivity index, ratio of IC50 for equine serum BChE to IC50 for electric eel AChE
Cholinesterase = Cholinesterase (Equus caballus, UniProt P81908); test: Inhibition of equine serum BChE using butyrylthiocholine iodide as substrate preincubated for 15 mins followed by substrate addition measured for 30 mins by Ellman's method
Chain of Cholinesterase (P81908 whole entry): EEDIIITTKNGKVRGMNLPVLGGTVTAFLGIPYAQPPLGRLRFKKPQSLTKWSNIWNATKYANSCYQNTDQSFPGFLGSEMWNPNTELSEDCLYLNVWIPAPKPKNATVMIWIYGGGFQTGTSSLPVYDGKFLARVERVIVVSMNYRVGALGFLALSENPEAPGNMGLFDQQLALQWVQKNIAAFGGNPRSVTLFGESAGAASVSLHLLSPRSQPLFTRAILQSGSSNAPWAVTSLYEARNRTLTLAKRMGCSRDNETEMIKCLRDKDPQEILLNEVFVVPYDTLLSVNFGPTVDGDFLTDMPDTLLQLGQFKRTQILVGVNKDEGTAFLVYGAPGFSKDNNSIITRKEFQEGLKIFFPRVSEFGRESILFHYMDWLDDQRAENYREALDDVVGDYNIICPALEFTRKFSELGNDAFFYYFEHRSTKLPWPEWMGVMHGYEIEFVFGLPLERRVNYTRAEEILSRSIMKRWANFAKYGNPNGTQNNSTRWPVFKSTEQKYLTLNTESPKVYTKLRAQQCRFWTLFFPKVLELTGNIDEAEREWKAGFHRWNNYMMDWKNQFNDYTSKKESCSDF

[4] = molecular target: Acetylcholinesterase (Electrophorus electricus) (UniProt O42275); test: Reversible inhibition of electric eel AChE at 4 to 12 uM using acetylthiocholine iodide as substrate preincubated for 15 mins followed by substrate addition measured for 30 mins by Ellman's method
[5] = molecular target: Acetylcholinesterase (Electrophorus electricus) (UniProt O42275); test: Mixed-type inhibition of electric eel AChE at 4 to 20 uM using acetylthiocholine iodide as substrate preincubated for 15 mins followed by substrate addition measured for 30 mins by Lineweaver-Burk plot method
[6] = molecular target: Acetylcholinesterase (Electrophorus electricus) (UniProt O42275); test: Mixed-type inhibition of electric eel AChE at 8 to 32 uM using acetylthiocholine iodide as substrate preincubated for 15 mins followed by substrate addition measured for 30 mins by Lineweaver-Burk plot method
[7] = molecular target: Acetylcholinesterase (Electrophorus electricus) (UniProt O42275); test: Reversible inhibition of electric eel AChE at 6 to 16 uM using acetylthiocholine iodide as substrate preincubated for 15 mins followed by substrate addition measured for 30 mins by Ellman's method
[8] = molecular target: Acetylcholinesterase (Electrophorus electricus) (UniProt O42275); test: Mixed-type inhibition of electric eel AChE at 6 to 24 uM using acetylthiocholine iodide as substrate preincubated for 15 mins followed by substrate addition measured for 30 mins by Lineweaver-Burk plot method
[9] = molecular target: Acetylcholinesterase (Electrophorus electricus) (UniProt O42275); test: Mixed-type inhibition of electric eel AChE at 4 to 16 uM using acetylthiocholine iodide as substrate preincubated for 15 mins followed by substrate addition measured for 30 mins by Lineweaver-Burk plot method
[10] = molecular target: Acetylcholinesterase (Electrophorus electricus) (UniProt O42275); test: Mixed-type inhibition of electric eel AChE at 7 to 28 uM using acetylthiocholine iodide as substrate preincubated for 15 mins followed by substrate addition measured for 30 mins by Lineweaver-Burk plot method

In the case of `C[C@H]1CC[C@@H]2[C@@H](C)[C@@H]3CC[C@@H]4[C@@H](C[C@H]5[C@H]4C[C@@H](O)[C@H]4C[C@@H](O)CC[C@@]45C)[C@@H]3CN2C1`, the IC50 (Acetylcholinesterase) is reported as 5.85 µM, the inhibition [1] is reported as “Active” and the inhibition [2] is reported as “Active”. The Ratio IC50 [3] was 0.36 and the IC50 (Cholinesterase) was 2.08 µM.
With `C[C@H]1CC[C@H]2[C@H](C)[C@@H]3CC[C@@H]4[C@@H](C[C@H]5[C@H]4CC(=O)[C@H]4C[C@@H](O)CC[C@@]45C)[C@@H]3CN2C1` the inhibition [4] was “Active”, the IC50 (Acetylcholinesterase) was 8.37 µM and the inhibition [5] was “Active”. It also gave a Ratio IC50 [3] of 0.36 and an IC50 (Cholinesterase) of 3.05 µM.
`C[C@H]1CC[C@@H]2N(C1)C[C@H]1[C@@H]3C[C@H]4[C@@H](CC(=O)[C@H]5C[C@@H](O[C@@H]6O[C@H](CO)[C@@H](O)[C@H](O)[C@H]6O)CC[C@@]54C)[C@@H]3CC[C@H]1[C@]2(C)O` gave an IC50 (Acetylcholinesterase) greater than 100 µM and an IC50 (Cholinesterase) greater than 100 µM.
In the case of `C=C1C2(CC[C@H]3[C@@H]4CC(=O)[C@H]5C[C@@H](O)CC[C@]5(C)[C@H]4C[C@@]13O)O[C@@H]1C[C@H](C)CN[C@H]1[C@H]2C` (stereo partly drawn), the IC50 (Acetylcholinesterase) is reported as 7.6 µM, the inhibition [1] is reported as “Active” and the inhibition [6] is reported as “Active”. The Ratio IC50 [3] was 126 and the IC50 (Cholinesterase) was 958 µM.
`C[C@H]1CC[C@@H]2N(C1)C[C@H]1[C@@H]3C[C@H]4[C@@H](CC(=O)[C@H]5C[C@@H](O)CC[C@@]54C)[C@@H]3CC[C@H]1[C@]2(C)O` [IMPERIALINE] gave an IC50 (Acetylcholinesterase) greater than 100 µM and an IC50 (Cholinesterase) greater than 100 µM.
With `C[C@H]1CC[C@H]2[C@H](C)[C@H]3CC[C@@H]4[C@@H](C[C@H]5[C@H]4C[C@@H](O)[C@H]4C[C@@H](O)CC[C@@]45C)[C@@H]3CN2C1` the IC50 (Acetylcholinesterase) was 45.8 µM, the Ratio IC50 [3] was 0.41 and the IC50 (Cholinesterase) was 18.6 µM.
In the case of `C[C@H]1CC[C@@H]2[C@@H](C)[C@@H]3CC[C@@H]4[C@@H](C[C@H]5[C@H]4C[C@@H](O)[C@H]4C[C@@H](O[C@@H]6O[C@H](CO)[C@@H](O)[C@H](O)[C@H]6O)CC[C@@]45C)[C@@H]3CN2C1`, the IC50 (Acetylcholinesterase) is reported as 10.8 µM, the inhibition [7] is reported as “Active” and the inhibition [8] is reported as “Active”. It also gave a Ratio IC50 [3] of 0.36 and an IC50 (Cholinesterase) of 3.89 µM.
In the case of `C[C@H]1CC[C@@H]2[C@@H](C)[C@@H]3CC[C@@H]4[C@@H](C[C@H]5[C@H]4C[C@H](O)[C@H]4C[C@@H](O)CC[C@@]45C)[C@@H]3CN2C1`, the IC50 (Acetylcholinesterase) is reported as 7.19 µM, the inhibition [1] is reported as “Active” and the Ratio IC50 [3] is reported as 0.36. The IC50 (Cholinesterase) was 2.58 µM and the inhibition [9] was “Active”.
In the case of `CC1=C2C[C@H]3[C@@H](CC(=O)[C@H]4C[C@@H](O)CC[C@@]43C)[C@@H]2CCC12O[C@@H]1C[C@H](C)CN[C@H]1[C@H]2C` (stereo partly drawn), the IC50 (Acetylcholinesterase) is reported as 94 µM, the Ratio IC50 [3] is reported as 1.63 and the IC50 (Cholinesterase) is reported as 153 µM.
For `C[C@H]1CC[C@@H]2[C@@H](C)[C@@H]3CC[C@@H]4[C@@H](C[C@H]5[C@H]4C[C@H](O)[C@H]4C[C@@H](O[C@@H]6O[C@H](CO)[C@@H](O)[C@H](O)[C@H]6O)CC[C@@]45C)[C@@H]3CN2C1`, the IC50 (Acetylcholinesterase) was 51.5 µM, the Ratio IC50 [3] was 0.26 and the IC50 (Cholinesterase) was 13.5 µM.
For `C[C@H]1CC[C@H]2[C@H](C)[C@@H]3CC[C@@H]4[C@@H](C[C@H]5[C@H]4CC(=O)[C@H]4C[C@@H](O[C@@H]6O[C@H](CO)[C@@H](O)[C@H](O)[C@H]6O)CC[C@@]45C)[C@@H]3CN2C1`, the IC50 (Acetylcholinesterase) was 11.5 µM, the inhibition [7] was “Active” and the inhibition [10] was “Active”. It also gave a Ratio IC50 [3] of 0.59 and an IC50 (Cholinesterase) of 6.8 µM.
With `C[C@H]1CC[C@H]2[C@H](C)[C@@H]3CC[C@@H]4[C@@H](C[C@H]5[C@H]4CC(=O)[C@H]4C[C@@H](O[C@@H]6O[C@H](CO)[C@@H](O[C@@H]7O[C@H](CO)[C@@H](O)[C@H](O)[C@H]7O)[C@H](O)[C@H]6O)CC[C@@]45C)[C@@H]3CN2C1` the IC50 (Acetylcholinesterase) was 9.88 µM, the inhibition [7] was “Active” and the inhibition [8] was “Active”. The Ratio IC50 [3] was 0.58 and the IC50 (Cholinesterase) was 5.71 µM.
